Test results published in US20250340575A1, “4-AMINOPYRROLO[2,1-F][1,2,4]TRIAZINES AND PREPARATION AND USES THEREOF” (Biosplice Therapeutics, Inc., priority 2024, published 2025).
pIC50: −log10 of the molar value.

Target: recombinant DYRK1A kinase (Homo sapiens, UniProt Q13627)
Test: DYRK1A kinase assay (Ser/Thr 18 peptide Z-lyte FRET)
Type: biochemical
Conditions: DYRK1A 0.25 μg/mL, ATP 15 μM, Ser/Thr peptide 18 4 μM, one hour at room temperature, 11-point dose-response from 10 μM
Procedure: Representative compounds were screened using the assay procedure for DYRK1A kinase activity as described below.
Each compound was dissolved in DMSO as a 10 mM stock and used to prepare compound source plates. Serial dilution (1:3, 11-point dose-response curves from 10 μM to 0.00016 μM) and compound transfer was performed using the ECHO 550 (Labcyte, Sunnyvale, CA) into 1536-well black-walled round bottom plates (Corning).
The DYRK1A kinase assay was run using the Ser/Thr 18 peptide Z-lyte assay kit according to manufacturer's instructions (Life Technologies—a Division of Thermo-Fisher). This is a non-radioactive assay using fluorescence resonance energy transfer (FRET) between coumarin and fluorescein to detect kinase activity which is represented as a ratio of coumarin emission/fluorescein emission.
Briefly, recombinant DYRK1A kinase, ATP and Ser/Thr peptide 18 were prepared in 1× Kinase buffer to final concentrations of 0.25 μg/mL, 15 μM, and 4 μM respectively. The mixture was allowed to incubate with the representative compounds for one hour at room temperature. All reactions were performed in duplicate. Unphosphorylated (“0% Control”) and phosphorylated (“100% control”) forms of Ser/Thr 18 served as control reactions. Additionally, an 11-point dose-response curve of Staurosporine (1 uM top) was run to serve as a positive compound control.
After incubation, Development Reagent A was diluted in Development Buffer then added to the reaction and allowed to further incubate for one hour at room temperature. The plate was read at Ex 400 Em 455 to detect the coumarin signal and Ex 400 Em 520 to measure the signal (EnVision Multilabel Plate Reader, PerkinElmer).
The Emission ratio (Em) was calculated as a ratio of the coumarin (C) emission signal (at 445 nm)/Fluorescein (F) emission signal (at 520 nm). The percent phosphorylation was then calculated using the following formula: [1−((Em ratio×F100%)−C100%)/((C0%−C100%)+(Em ratio×(F100%−F0%)))]. Dose-response curves were generated, and inhibitory concentration (IC50) values were calculated using non-linear regression curve fit in the Dotmatics' Studies Software (Bishops Stortford, UK).

Row | pIC50 | SMILES
1 | 8.57 | CNc1nc(N[C@H]2CCN(C)C[C@H]2F)nn2ccc(-c3ccc4nnn(CC(F)F)c4n3)c12 [Compound 273, 5-(3-(2,2-Difluoroethyl)-3H-[1,2,3]triazolo[4,5-b]pyridin-5-yl)-N^2-((3R,4S)-3-fluoro-1-methylpiperidin-4-yl)-N^4-methylpyrrolo[2,1-f][1,2,4]triazine-2,4-diamine]
2 | 8.72 | CNc1nc(N[C@@H]2CCN(C(C)=O)CC2(F)F)nn2cc(F)c(-c3ccc4nnn(CCF)c4n3)c12 [Compound 252, (R)-1-(3,3-Difluoro-4-((6-fluoro-5-(3-(2-fluoroethyl)-3H-[1,2,3]triazolo[4,5-b]pyridin-5-yl)-4-(methylamino)pyrrolo[2,1-f][1,2,4]triazin-2-yl)amino)piperidin-1-yl)ethan-1-one]
3 | 8.46 | CNc1nc(N[C@@H]2CCN(C(C)=O)CC2(F)F)nn2ccc(-c3ccc4nnn(CCCF)c4n3)c12 [Compound 339, (R)-1-(3,3-Difluoro-4-((5-(3-(3-fluoropropyl)-3H-[1,2,3]triazolo[4,5-b]pyridin-5-yl)-4-(methylamino)pyrrolo[2,1-f][1,2,4]triazin-2-yl)amino)piperidin-1-yl)ethan-1-one]
4 | 8.44 | CNc1nc(N[C@H]2CCN(CCF)C[C@H]2F)nn2ccc(-c3ccc4nnn(CC(F)F)c4n3)c12 [Compound 274, 5-(3-(2,2-Difluoroethyl)-3H-[1,2,3]triazolo[4,5-b]pyridin-5-yl)-N^2-((3R,4S)-3-fluoro-1-(2-fluoroethyl)piperidin-4-yl)-N^4-methylpyrrolo[2,1-f][1,2,4]triazine-2,4-diamine]
5 | 8.09 | FC(F)Cn1nnc2ccc(-c3ccn4nc(N[C@H]5CCN(C6COC6)C[C@H]5F)nc(NC5CC5)c34)nc21 [Compound 419, N^4-Cyclopropyl-5-(3-(2,2-difluoroethyl)-3H-[1,2,3]triazolo[4,5-b]pyridin-5-yl)-N^2-((3R,4S)-3-fluoro-1-(oxetan-3-yl)piperidin-4-yl)pyrrolo[2,1-f][1,2,4]triazine-2,4-diamine]
6 | 8.70 | CNc1nc(N[C@H]2CCN(C(C)=O)C[C@H]2F)nn2ccc(-c3ccc4nnn(CCF)c4n3)c12 [Compound 235, 1-((3R,4S)-3-Fluoro-4-((5-(3-(2-fluoroethyl)-3H-[1,2,3]triazolo[4,5-b]pyridin-5-yl)-4-(methylamino)pyrrolo[2,1-f][1,2,4]triazin-2-yl)amino)piperidin-1-yl)ethan-1-one]
7 | 8.77 | CNc1nc(NC2CCN(CC(F)F)CC2)nn2ccc(-c3ccc4nnn(CC(F)F)c4n3)c12 [Compound 270, 5-(3-(2,2-Difluoroethyl)-3H-[1,2,3]triazolo[4,5-b]pyridin-5-yl)-N^2-(1-(2,2-difluoroethyl)piperidin-4-yl)-N^4-methylpyrrolo[2,1-f][1,2,4]triazine-2,4-diamine]
8 | 8.08 | CNc1nc(N[C@H]2CCN(CCOC)C[C@H]2F)nn2ccc(-c3ccc4nnn(CC(F)F)c4n3)c12 [Compound 275, 5-(3-(2,2-Difluoroethyl)-3H-[1,2,3]triazolo[4,5-b]pyridin-5-yl)-N^2-((3R,4S)-3-fluoro-1-(2-methoxyethyl)piperidin-4-yl)-N^4-methylpyrrolo[2,1-f][1,2,4]triazine-2,4-diamine]

Second part, the molecule before the results:

Row | SMILES | pIC50
9 | Nc1nc(N[C@@H]2CCN(C3COC3)C[C@@H]2F)nn2ccc(-c3ccc4ncn(CC(F)F)c4n3)c12 [Compound 122, 5-(3-(2,2-Difluoroethyl)-3H-imidazo[4,5-b]pyridin-5-yl)-N^2-((3S,4R)-3-fluoro-1-(oxetan-3-yl)piperidin-4-yl)pyrrolo[2,1-f][1,2,4]triazine-2,4-diamine] | 8.96
10 | CNc1nc(N[C@H]2CCN(C3COC3)C[C@H]2F)nn2cc(F)c(-c3ccc4nc(C)n(CCF)c4n3)c12 [Compound 164, 6-Fluoro-N^2-((3R,4S)-3-fluoro-1-(oxetan-3-yl)piperidin-4-yl)-5-(3-(2-fluoroethyl)-2-methyl-3H-imidazo[4,5-b]pyridin-5-yl)-N^4-methylpyrrolo[2,1-f][1,2,4]triazine-2,4-diamine] | 8.74
11 | CN1CC[C@@H](Nc2nc(N)c3c(-c4ccc5nnn(CC(F)F)c5n4)c(F)cn3n2)C(F)(F)C1 [Compound 261, (R)—N^2-(3,3-Difluoro-1-methylpiperidin-4-yl)-5-(3-(2,2-difluoroethyl)-3H-[1,2,3]triazolo[4,5-b]pyridin-5-yl)-6-fluoropyrrolo[2,1-f][1,2,4]triazine-2,4-diamine] | 9.22
12 | CNc1nc(N[C@@H]2CCN(C3COC3)CC2(F)F)nn2cc(F)c(-c3ccc4nccn4n3)c12 [Compound 58, (R)—N^2-(3,3-Difluoro-1-(oxetan-3-yl)piperidin-4-yl)-6-fluoro-5-(imidazo[1,2-b]pyridazin-6-yl)-N^4-methylpyrrolo[2,1-f][1,2,4]triazine-2,4-diamine] | 8.72
13 | Nc1nc(N[C@H]2CCN(C3COC3)C[C@H]2F)nn2cc(F)c(-c3ccc4nnn(CC(F)F)c4n3)c12 [Compound 260, 5-(3-(2,2-Difluoroethyl)-3H-[1,2,3]triazolo[4,5-b]pyridin-5-yl)-6-fluoro-N^2-((3R,4S)-3-fluoro-1-(oxetan-3-yl)piperidin-4-yl)pyrrolo[2,1-f][1,2,4]triazine-2,4-diamine] | 8.74
14 | CNc1nc(N[C@@H]2CCN(C(C)=O)CC2(F)F)nn2ccc(-c3ccc4nccn4n3)c12 [Compound 46, (R)-1-(3,3-Difluoro-4-((5-(imidazo[1,2-b]pyridazin-6-yl)-4-(methylamino)pyrrolo[2,1-f][1,2,4]triazin-2-yl)amino)piperidin-1-yl)ethan-1-one] | 8.52
15 | Nc1nc(N[C@H]2CCN(C3COC3)C[C@H]2F)nn2ccc(-c3ccc4ncn(CCF)c4n3)c12 [Compound 117, N^2-((3R,4S)-3-Fluoro-1-(oxetan-3-yl)piperidin-4-yl)-5-(3-(2-fluoroethyl)-3H-imidazo[4,5-b]pyridin-5-yl)pyrrolo[2,1-f][1,2,4]triazine-2,4-diamine] | 9.05
16 | CNc1nc(N[C@@H]2CCN(C(C)=O)CC2(F)F)nn2cc(F)c(-c3ccc4nc(C)n(CC(F)F)c4n3)c12 [Compound 177, (R)-1-(4-((5-(3-(2,2-Difluoroethyl)-2-methyl-3H-imidazo[4,5-b]pyridin-5-yl)-6-fluoro-4-(methylamino)pyrrolo[2,1-f][1,2,4]triazin-2-yl)amino)-3,3-difluoropiperidin-1-yl)ethan-1-one] | 8.82
17 | CN1CC[C@H](Nc2nc(N)c3c(-c4ccc5ncn(CC(F)F)c5n4)ccn3n2)[C@H](F)C1 [Compound 120, 5-(3-(2,2-Difluoroethyl)-3H-imidazo[4,5-b]pyridin-5-yl)-N^2-((3R,4S)-3-fluoro-1-methylpiperidin-4-yl)pyrrolo[2,1-f][1,2,4]triazine-2,4-diamine] | 9.15
18 | Nc1nc(N[C@@H]2CCN(C3COC3)CC2(F)F)nn2ccc(-c3ccc4ncn(CCF)c4n3)c12 [Compound 119, (R)—N^2-(3,3-Difluoro-1-(oxetan-3-yl)piperidin-4-yl)-5-(3-(2-fluoroethyl)-3H-imidazo[4,5-b]pyridin-5-yl)pyrrolo[2,1-f][1,2,4]triazine-2,4-diamine] | 8.85
19 | COCCN1CC[C@H](Nc2nc(N)c3c(-c4ccc5ncn(CC(F)F)c5n4)ccn3n2)[C@H](F)C1 [Compound 121, 5-(3-(2,2-difluoroethyl)-3H-imidazo[4,5-b]pyridin-5-yl)-N^2-((3R,4S)-3-fluoro-1-(2-methoxyethyl)piperidin-4-yl)pyrrolo[2,1-f][1,2,4]triazine-2,4-diamine] | 9.10
20 | CC(=O)N1CC[C@@H](Nc2nc(N)c3c(-c4ccc5ncn(CCF)c5n4)ccn3n2)C(F)(F)C1 [Compound 118, (R)-1-(4-((4-Amino-5-(3-(2-fluoroethyl)-3H-imidazo[4,5-b]pyridin-5-yl)pyrrolo[2,1-f][1,2,4]triazin-2-yl)amino)-3,3-difluoropiperidin-1-yl)ethan-1-one] | 9.30
21 | Nc1nc(N[C@@H]2CCN(C3COC3)C[C@@H]2F)nn2ccc(-c3ccc4ncn(CC(F)(F)F)c4n3)c12 [Compound 128, N^2-((3S,4R)-3-Fluoro-1-(oxetan-3-yl)piperidin-4-yl)-5-(3-(2,2,2-trifluoroethyl)-3H-imidazo[4,5-b]pyridin-5-yl)pyrrolo[2,1-f][1,2,4]triazine-2,4-diamine] | 8.85
22 | CNc1nc(N[C@H]2CCN(C3COC3)C[C@H]2F)nn2cc(F)c(-c3ccc4nnn(CC(F)F)c4n3)c12 [Compound 290, 5-(3-(2,2-Difluoroethyl)-3H-[1,2,3]triazolo[4,5-b]pyridin-5-yl)-6-fluoro-N^2-((3R,4S)-3-fluoro-1-(oxetan-3-yl)piperidin-4-yl)-N^4-methylpyrrolo[2,1-f][1,2,4]triazine-2,4-diamine] | 8.92
